Measured values published in patent US20050175535A1 (CV Therapeutics, Inc., priority 2000, published 2005).
Where two headings read alike, the source gives them in different places.

Columns and labels:
[1] = test system: rat isolated perfused heart; assay: Reversal time of coronary vasodilation in rat isolated perfused hearts; settings: bolus, rat isolated perfused heart;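 also: each agonist bolused at its minimal concentration giving equal maximal coronary conductance rise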
Description: FIG. 10. Reversal of effect of agonist stimulation on CC. […] CC was measured at 8, 16 and 24 minutes after administration (FIG. 10A). […] R and N are the correlation coefficient and number of agonists, respectively.
The relationship between the affinity of agonists for the A2A receptor and the rate of reversal of agonist-mediated responses (coronary vasodilation in heart and cAMP accumulation in PC12 cells) upon termination of drug administration were determined. […] The duration of the coronary vasodilation in isolated rat hearts caused by adenosine, the CVT compounds, and other agonists measured as the time to 50% and 90% (t0.5 and t0.9, respectively) reversal of the increases in coronary conductance after termination of drug administration are summarized in Table 4.

A2A adenosine receptors = A2A adenosine receptors (Sus scrofa, UniProt K9IW67); assay: Competitive radioligand binding, [3H]ZM241385, pig striatum membranes; settings: [3H]ZM241385, Gpp(NH)p present
Description: Membranes were also obtained from porcine striatial cells as follows. […] The homogenate was filtered through cotton gauze and centrifuged at 48,000g for 15 minutes at 4° C. […] The final pellet was frozen at −80° C. until used for receptor binding assays.

[2] = test system: rat isolated perfused heart; assay: Coronary conductance / coronary perfusion pressure in isolated perfused rat hearts; settings: for EC50: Rattus norvegicus
Description: Briefly, rats of either sex weighing 230-260 grams were anesthetized by intraperitoneal injection of a mixture of ketamine (100 mg/ml) and xylazine (20 mg/ml). The chest of each rat was opened and the heart removed, and rinsed in ice-cold modified Krebs-Henseleit (K-H) solution containing NaCl 117.9, KCl 4.5, CaCl2 2.5, MgSO4 1.18, KH2PO4 1.18, pyruvate 2.0 mmo/L. The aorta was cannulated and the heart was perfused at a flow rate of 10 ml/min with modified K-H solution. The K-H solution (pH 7.4) was gassed continuously with 95% O2 and 5% CO2 and warmed to 35±0.5° C. The heart was electrically paced at a fixed cycle length of 240 ms (250 beats/min) using a bipolar electrode placed in the left atrium. The electrical stimuli were generated by a Grass stimulator (Model S48, W. Warwick, R.I.) and delivered through a Stimuli Isolation Unit (Model SIU5, Astro-Med, Inc., NY) as square-wave pulses of 3-msec in duration and with an amplitude of at least twice the threshold intensity.
The identity of the adenosine receptor subtype (A1 or A2A) mediating the coronary vasodilation was determined.
Coronary perfusion pressure (CPP) was measured using a pressure transducer that was connected to the aortic cannula via a T-connector positioned approximately 3 cm above the heart. CPP was monitored throughout an experiment and recorded either on a chart recorder (Gould Recorder 2200S, Valley View, Ohio) or a computerized recording system (PowerLab/4S, ADInstruments Pty Ltd, Australia). Only hearts with CPP ranging from 60 to 85 mmHg (in the absence of drugs) were used in the study. CC conductance (in ml/min/mmHg) was calculated as the ratio between coronary perfusion rate (10 ml/min) and CPP.

[3] = biological target: T1, human A1 adenosine receptors (Homo sapiens, UniProt P30542); assay: Competitive radioligand binding, [3H]CPX, CHO-hA1AdoR membranes; settings: in words
T1 construct: expressed in transfected cells
T1 sequence (P30542 1-326): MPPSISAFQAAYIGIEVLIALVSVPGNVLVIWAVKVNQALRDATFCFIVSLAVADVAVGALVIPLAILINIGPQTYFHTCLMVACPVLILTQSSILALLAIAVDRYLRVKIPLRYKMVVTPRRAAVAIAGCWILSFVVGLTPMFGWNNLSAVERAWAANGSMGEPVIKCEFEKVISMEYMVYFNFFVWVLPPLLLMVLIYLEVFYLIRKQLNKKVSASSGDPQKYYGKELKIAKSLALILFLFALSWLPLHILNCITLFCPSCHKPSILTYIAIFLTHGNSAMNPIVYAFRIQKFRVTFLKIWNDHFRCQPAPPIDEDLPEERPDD
Description: The cell suspensions were homogenized and centrifuged at 48,000g for 15 minutes. The pellets were washed three times by re-suspension in ice-cold Tris-HCl buffer and centrifugation. The final pellet was re-suspended in Tris-HCl, aliquoted and frozen at −80° C. until used for receptor binding assays.

[4] = Coronary blood flow and reversal time, intracoronary infusion in open-chest anesthetized pigs; format: in vivo
Description: The magnitude of the effect of A2A adenosine receptor agonists on coronary dilation and the duration of the effect was determined in pigs weighing 22-27 kg. […] In addition, animals were used in accordance with the guidelines of the University of Kentucky Institutional Animal Care and Use Protocol.
Anesthesia was maintained with additional sodium pentobarbital (1.5-2 mg/kg, i.v.) every 15-20 minutes. Animals were ventilated via a tracheotomy tube using a mixture of room air and 100% O2. Tidal volume, respiratory rate and fraction of O2 in inspired air were adjusted to maintain arterial blood gas (ABG) and pH values. […] Lactate Ringers solution was administered via an ear or femoral vein as an initial bolus of 300-400 ml followed by a continuous infusion at a rate of 5-7 ml/kg/hr. A catheter was inserted into the femoral artery to monitor arterial blood pressure.
The heart was exposed through a median sternotomy and suspended in a pericardial cradle. Left ventricular pressure (LVP) was measured with a 5F high fidelity pressure sensitive tip transducer (Millar Instruments, Houston, Tex.) placed in the left ventricular cavity via an apical incision and secured with a purse string suture. A segment of the left anterior descending coronary artery (LAD), proximal to the origin of the first diagonal branch, was dissected free of surrounding tissue. A transit time perivascular flow probe (Transonic Systems Inc., Ithaca, N.Y.) was placed around this segment to measure CBF. Proximal to the flow probe, a 24-gauge modified angiocatheter was inserted for intracoronary infusions. […] The A2A adenosine receptors agonists were administered intracoronary.
Relationship between affinity of various agonists for A2A adenosine receptor and the reversal time of their effect to increase coronary conductance was determined in pigs. Each experiment was preceded by a 30-minute stabilization period following the completion of all instrumentation of the animal. Baseline hemodynamic data were then recorded and an intracoronary infusion of an A2A Adenosine receptors agonist was initiated. Each infusion was maintained for 4-5 minutes to allow LAD CBF to reach a steady-state, after which the infusion was terminated. The times to recovery of CBF by 50% (t0.5) and 90% (t0.9) of the difference from peak effect to baseline CBF were recorded. Ten to 15 minutes after CBF returned to pre-drug values a second infusion with a different agonist was started. […] Hemodynamic measurements were made prior to and following the initiation of the phenylephrine infusion. The phenylephrine infusion rate was adjusted during and following the infusions of the adenosine receptor agonists to maintain arterial blood pressure within 5 mmHg of pre-infusion values. The effect of a maximum of three different agonists was determined in each experiment.

[5] = read-out: Ki, Pig Strialum (A2A)
[6] = read-out: pKi ± SEM, Pig Strialum (A2A) (converted)

A2A adenosine receptors, sequence (K9IW67 1-409): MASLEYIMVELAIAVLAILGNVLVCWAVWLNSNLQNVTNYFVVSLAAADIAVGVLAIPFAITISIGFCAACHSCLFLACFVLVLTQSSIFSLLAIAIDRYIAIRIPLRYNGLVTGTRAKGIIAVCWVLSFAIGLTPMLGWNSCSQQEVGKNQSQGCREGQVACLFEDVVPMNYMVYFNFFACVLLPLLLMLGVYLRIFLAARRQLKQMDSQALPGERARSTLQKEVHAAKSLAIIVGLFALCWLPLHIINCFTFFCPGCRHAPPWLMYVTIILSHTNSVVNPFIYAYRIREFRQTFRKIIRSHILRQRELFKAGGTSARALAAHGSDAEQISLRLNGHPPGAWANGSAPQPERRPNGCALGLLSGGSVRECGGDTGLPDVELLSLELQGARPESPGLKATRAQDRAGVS

| SMILES | Ki (A2A adenosine receptors; [5]) [nM] | t0.5, time to 50% reversal of the increase in coronary conductance [1] [min] | t0.9, time to 90% reversal of the increase in coronary conductance [1] [min] | other results |
| --- | --- | --- | --- | --- |
| CCNC(=O)[C@H]1O[C@@H](n2cnc3c(N)nc(NCCc4ccc(CCC(=O)O)cc4)nc32)[C@H](O)[C@@H]1O [CGS21680, 2-p-(2-carboxy-ethyl) phenethyl-amino-5′-N-ethylcarboxamido-adenosine, reference compound] | – | – | – | decrease in coronary perfusion pressure ([2]; 100 nM, isolated rat heart): 23 mmHg; EC50 ([2]; read-out: EC50, Coronary Conductance (Rat Isolated Heart)): 0.54 nM; EC50 ([2]; read-out: pEC50 ± SEM, Coronary Conductance (Rat Isolated Heart) (converted)): 0.537 nM; effect on coronary conductance ([2]; isolated rat hearts, in words): concentration-dependent increases in coronary conductance; affinity for the A1 receptor expressed by CHO-K1 cells [3]: relatively low affinities; t0.5 reversal of increase in coronary blood flow ([4]; 2 ug/kg/min intracoronary): 9.7 ± 0.8 min; t0.9 reversal of increase in coronary blood flow ([4]; 2 ug/kg/min intracoronary): 21.4 ± 0.8 min |
| Cc1ccc(-c2nc(N)c3ncn([C@@H]4O[C@H](CO)[C@@H](O)[C@H]4O)c3n2)s1 [CVT-3100] | 697 | 5.1 ± 0.6 | 10.1 ± 0.2 | – |
| Nc1nc(-c2cnn(CCCc3ccccc3)c2)nc2c1ncn2[C@@H]1O[C@H](CO)[C@@H](O)[C@H]1O [CVT-3126, (4S,2R,3R,5R)-2-{6-amino-2-[1-(3-phenylpropyl)pyrazol-4-yl]purin-9-yl}-5-(hydroxymethyl)oxolane-3,4-diol] | 1670 | 8.3 ± 0.4 | 12.6 ± 0.3 | – |
| CCOC(=O)c1cnn(-c2nc(N)c3ncn([C@@H]4O[C@H](CO)[C@@H](O)[C@H]4O)c3n2)c1 [CVT-3127, ethyl 1-{9-[(4S,2R,3R,5R)-3,4-dihydroxy-5-(hydromethyl)oxolan-2-yl]-6-aminopurin-2-yl}pyrazole-4-carboxylate] | 64 | 14.8 ± 2.1 | 15.0 ± 0.8 | Ki (A2A adenosine receptors; [6]): 60.3 nM |
| Nc1nc(-n2cc(-c3ccc(Cl)cc3)cn2)nc2c1ncn2[C@@H]1O[C@H](CO)[C@@H](O)[C@H]1O [CVT-3141, (4S,2R,3R,5R)-2-{6-amino-2-[4-(4-chlorophenyl)pyrazole]purin-9-yl}-5-(hydroxymethyl)oxolane-3,4-diol] | – | 14.4 ± 1.9 | 21.3 ± 3.9 | – |
| CCCCC#Cc1nc(N)c2ncn([C@@H]3O[C@H](C(=O)NCC)[C@@H](O)[C@H]3O)c2n1 [HENECA, 2-hexynyladenosine-5′-N-ethyl-, reference compound] | 7.96 | 28.6 ± 1.1 | 32.8 ± 3.1 | pKi ± SEM, Pig Strialum (A2A) (A2A adenosine receptors): 8.10 ± 0.08 |
| CCCCCCC#Cc1nc(N)c2ncn([C@@H]3O[C@H](CO)[C@@H](O)[C@H]3O)c2n1 [YT-146, reference compound] | 16.3 | 17.7 ± 1.0 | 25.8 ± 4.0 | CBF (fold-increase) ([4]; 1 ug/kg/min intracoronary): 3.44 ± 0.47 fold; t0.5 reversal of increase in coronary blood flow ([4]; 1 ug/kg/min intracoronary): 17.8 ± 3.4 min; t0.9 reversal of increase in coronary blood flow ([4]; 1 ug/kg/min intracoronary): 32.9 ± 5.6 min; pKi ± SEM, Pig Strialum (A2A) (A2A adenosine receptors): 7.86 ± 0.33 |

Continued, in another order:

| Ki (A2A adenosine receptors; [5]) [nM] | SMILES | t0.5, time to 50% reversal of the increase in coronary conductance [1] [min] | t0.9, time to 90% reversal of the increase in coronary conductance [1] [min] | other results |
| --- | --- | --- | --- | --- |
| 502 | Cc1ccc(-c2cnn(-c3nc(N)c4ncn([C@@H]5O[C@H](CO)[C@@H](O)[C@H]5O)c4n3)c2)cc1 | 13.6 ± 1.3 | 18.9 ± 1.9 | Ki (A2A adenosine receptors; [6]): 490 nM |
| 1010 | Nc1nc(-c2cccs2)nc2c1ncn2[C@@H]1O[C@H](CO)[C@@H](O)[C@H]1O [CVT-3003, (4S,2R,3R,5R)-2-(6-amino-2-(2-thienyl)pruin-9-yl)-5-(hydroxymethyl)oxolane-3,4-diol] | 3.4 ± 0.1 | 9.2 ± 2.2 | – |
| 64 | Nc1nc(C#CCOc2ccccc2Cc2ccccc2)nc2c1ncn2[C@@H]1O[C@H](CO)[C@@H](O)[C@H]1O [CVT-3006, (4S,2R,3R,5R)-2-(6-amino-2-{3-[2-benzylphenoxy]prop-1-ynyl}purin-9-yl)-5-(hydroxymethyl)oxolane-3,4-diol] | 16.1 ± 0.1 | 21.8 ± 2.0 | Ki (A2A adenosine receptors; [6]): 57.5 nM |
| 94 | N#Cc1ccc(OCC#Cc2nc(N)c3ncn([C@@H]4O[C@H](CO)[C@@H](O)[C@H]4O)c3n2)cc1 [CVT-3101, 4-(3-{9-[(4S,2R,3R,5R)-3,4-dihydroxy-5-(hydroxymethyl)oxolan-2-yl]-6-aminopurin-2-yl}prop-2-ynyloxy)benzenecarbonitrile] | 16.7 ± 0.5 | 25.6 ± 0.3 | – |
| 1110 | C[C@H](Cc1ccccc1)Nc1ncnc2c1ncn2[C@@H]1O[C@H](CO)[C@@H](O)[C@H]1O [R-PIA, Phenylisopropyladenosine, reference compound] | – | – | pKi ± SEM, Pig Strialum (A2A) (A2A adenosine receptors): 5.96 ± 0.06 |
